Molecular target: human integrin αvβ6 (Homo sapiens (Human), UniProt P06756+P18564)
Experiment: Proximity-based integrin receptor binding assay (ALPHASCREEN) for inhibitor potency
Settings: inhibition of binding of TGF-b1 LAP to human integrin αvβ6; values given in ranges
Experimental: To gauge the potency of inhibitors of binding to human integrin αvβ6, inhibitor compounds and integrin were incubated together with TGF-b1 LAP and biotinylated anti-LAP antibody plus acceptor and donor beads, following the manufacture's recommendations. The donor beads were coated with streptavidin. […] All incubations occurred at room temperatures in 50 mM Tris-HCl, pH 7.5, 0.1% BSA supplemented with 1 mM each CaCl2 and MgCl2.
The order of reagent addition was as follows:
1. Alpha-v-beta-6 integrin, test inhibitor compound, LAP, biotinylated anti-LAP antibody and acceptor beads were all added together.
2. After 2 hours, donor beads were added. After another 30 minute incubation, samples were then read.
Integrin binding was evaluated by exciting donor beads at 680 nm, and measuring the fluorescent signal produced, between 520-620 nm, using a Biotek Instruments (Winooski, Vt., USA) SynergyNeo2 multimode plate reader. […] Data analysis for IC50 determinations was carried out by nonlinear four parameter logistic regression analysis using Dotmatics ELN Software (Core Informatics Inc., Branford, Conn.).

Chain of human integrin αvβ6 (P06756 31-992): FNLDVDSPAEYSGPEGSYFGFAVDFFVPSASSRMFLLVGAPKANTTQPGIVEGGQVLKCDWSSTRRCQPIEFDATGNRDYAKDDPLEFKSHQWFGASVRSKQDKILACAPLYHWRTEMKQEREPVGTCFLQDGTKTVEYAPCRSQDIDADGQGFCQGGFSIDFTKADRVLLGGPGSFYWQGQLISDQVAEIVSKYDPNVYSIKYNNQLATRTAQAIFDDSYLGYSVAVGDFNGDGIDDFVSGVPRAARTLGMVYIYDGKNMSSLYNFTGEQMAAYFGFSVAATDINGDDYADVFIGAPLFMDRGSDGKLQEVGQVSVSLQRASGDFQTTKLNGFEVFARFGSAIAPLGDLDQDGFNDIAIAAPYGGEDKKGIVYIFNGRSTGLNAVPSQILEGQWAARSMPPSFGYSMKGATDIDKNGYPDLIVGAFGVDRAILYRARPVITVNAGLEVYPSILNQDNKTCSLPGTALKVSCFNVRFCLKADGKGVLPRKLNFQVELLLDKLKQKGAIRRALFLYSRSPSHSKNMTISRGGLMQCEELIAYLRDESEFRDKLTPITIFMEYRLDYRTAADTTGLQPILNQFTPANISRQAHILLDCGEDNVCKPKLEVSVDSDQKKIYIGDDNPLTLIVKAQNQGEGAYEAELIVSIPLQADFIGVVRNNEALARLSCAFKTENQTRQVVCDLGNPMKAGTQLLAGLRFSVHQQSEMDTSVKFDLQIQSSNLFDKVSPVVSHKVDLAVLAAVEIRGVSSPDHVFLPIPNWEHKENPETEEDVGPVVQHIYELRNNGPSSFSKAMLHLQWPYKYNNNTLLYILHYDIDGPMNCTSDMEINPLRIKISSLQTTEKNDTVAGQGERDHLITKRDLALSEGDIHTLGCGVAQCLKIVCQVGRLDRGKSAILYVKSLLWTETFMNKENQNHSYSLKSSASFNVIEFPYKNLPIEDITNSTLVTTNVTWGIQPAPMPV
Chain of human integrin αvβ6 (P18564 22-707): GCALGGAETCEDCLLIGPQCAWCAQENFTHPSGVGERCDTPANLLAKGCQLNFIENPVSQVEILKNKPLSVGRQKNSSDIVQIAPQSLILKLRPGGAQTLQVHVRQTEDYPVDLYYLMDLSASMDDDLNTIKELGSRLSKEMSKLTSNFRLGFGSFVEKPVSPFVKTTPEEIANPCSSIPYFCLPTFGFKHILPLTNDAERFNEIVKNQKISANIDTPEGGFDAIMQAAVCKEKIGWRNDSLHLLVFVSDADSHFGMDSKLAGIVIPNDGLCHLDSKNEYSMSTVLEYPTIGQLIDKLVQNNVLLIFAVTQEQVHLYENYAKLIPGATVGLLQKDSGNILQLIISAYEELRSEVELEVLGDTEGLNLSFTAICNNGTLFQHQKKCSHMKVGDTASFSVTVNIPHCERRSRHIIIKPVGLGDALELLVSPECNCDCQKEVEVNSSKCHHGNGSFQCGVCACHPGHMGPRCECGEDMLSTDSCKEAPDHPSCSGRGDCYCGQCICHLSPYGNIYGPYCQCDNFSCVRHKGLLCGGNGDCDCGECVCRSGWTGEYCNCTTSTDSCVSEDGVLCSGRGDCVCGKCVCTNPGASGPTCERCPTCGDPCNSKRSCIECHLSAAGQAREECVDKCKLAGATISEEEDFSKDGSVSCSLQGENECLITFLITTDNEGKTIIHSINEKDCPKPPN

Row | Structure (SMILES) | IC50 [nM]
1 | O=C(N[C@@H](CCO[C@H]1C[C@H](CCc2ccc3c(n2)NCCC3)C1)C(=O)O)c1cc(F)cc(F)c1 [Compound 28, N-(3,5-difluorobenzoyl)-O-(trans-3-(2-(5,6,7,8-tetrahydro-1,8-naphthyridin-2-yl)ethyl)cyclobutyl)homoserine] | < 50
2 | O=C(N[C@@H](CCO[C@H]1C[C@H](CCc2ccc3c(n2)NCCC3)C1)C(=O)O)c1ccc(F)c(F)c1 [Compound 29, N-(3,4-difluorobenzoyl)-O-(trans-3-(2-(5,6,7,8-tetrahydro-1,8-naphthyridin-2-yl)ethyl)cyclobutyl)homoserine] | < 50
3 | O=C(N[C@@H](CCO[C@H]1C[C@H](CCc2ccc3c(n2)NCCC3)C1)C(=O)O)c1c(F)cccc1Cl [Compound 31, N-(2-chloro-6-fluorobenzoyl)-O-(trans-3-(2-(5,6,7,8-tetrahydro-1,8-naphthyridin-2-yl)ethyl)cyclobutyl)homoserine] | < 50
4 | O=C(N[C@@H](CCO[C@H]1C[C@H](CCc2ccc3c(n2)NCCC3)C1)C(=O)O)c1c(F)cccc1F [Compound 32, N-(2,6-difluorobenzoyl)-O-(trans-3-(2-(5,6,7,8-tetrahydro-1,8-naphthyridin-2-yl)ethyl)cyclobutyl)homoserine] | < 50
5 | O=C(N[C@@H](CCO[C@H]1C[C@H](CCc2ccc3c(n2)NCCC3)C1)C(=O)O)c1cc(F)ccc1F [Compound 33, N-(2,5-difluorobenzoyl)-O-(trans-3-(2-(5,6,7,8-tetrahydro-1,8-naphthyridin-2-yl)ethyl)cyclobutyl)homoserine] | < 50
6 | O=C(N[C@@H](CCO[C@H]1C[C@H](CCc2ccc3c(n2)NCCC3)C1)C(=O)O)c1ccc(Cl)c(Cl)c1 [Compound 34, N-(3,4-dichlorobenzoyl)-O-(trans-3-(2-(5,6,7,8-tetrahydro-1,8-naphthyridin-2-yl)ethyl)cyclobutyl)homoserine] | 50 to 250
7 | O=C(N[C@@H](CCO[C@H]1C[C@H](CCc2ccc3c(n2)NCCC3)C1)C(=O)O)c1ccccn1 [Compound 35, N-picolinoyl-O-(trans-3-(2-(5,6,7,8-tetrahydro-1,8-naphthyridin-2-yl)ethyl)cyclobutyl)homoserine] | 50 to 250
8 | O=C(NC(CCO[C@H]1C[C@H](CCc2ccc3c(n2)NCCC3)C1)C(=O)O)c1ccncc1 (stereo partly drawn) [Compound 37, N-isonicotinoyl-O-(trans-3-(2-(5,6,7,8-tetrahydro-1,8-naphthyridin-2-yl)ethyl)cyclobutyl)homoserine] | < 50

The remaining lines, values ahead:

Row | IC50 [nM] | Structure (SMILES)
9 | < 50 | O=C(N[C@@H](CCO[C@H]1C[C@H](CCc2ccc3c(n2)NCCC3)C1)C(=O)O)c1cccc(Cl)c1F [Compound 27, N-(3-chloro-2-fluorobenzoyl)-O-(trans-3-(2-(5,6,7,8-tetrahydro-1,8-naphthyridin-2-yl)ethyl)cyclobutyl)homoserine]
10 | < 50 | O=C(N[C@@H](CCO[C@H]1C[C@H](CCc2ccc3c(n2)NCCC3)C1)C(=O)O)c1cccc(Cl)c1Cl [Compound 30, N-(2,3-dichlorobenzoyl)-O-(trans-3-(2-(5,6,7,8-tetrahydro-1,8-naphthyridin-2-yl)ethyl)cyclobutyl)homoserine]
11 | < 50 | O=C(N[C@@H](CCO[C@H]1C[C@H](CCc2ccc3c(n2)NCCC3)C1)C(=O)O)c1cccnc1 [Compound 36, N-nicotinoyl-O-(trans-3-(2-(5,6,7,8-tetrahydro-1,8-naphthyridin-2-yl)ethyl)cyclobutyl)homoserine]
12 | 50 to 250 | Cn1ncc2c(C(=O)N[C@@H](CCO[C@H]3C[C@H](CCc4ccc5c(n4)NCCC5)C3)C(=O)O)cccc21 [Compound 38, N-(1-methyl-1H-indazole-4-carbonyl)-O-(trans-3-(2-(5,6,7,8-tetrahydro-1,8-naphthyridin-2-yl)ethyl)cyclobutyl)homoserine]
13 | 50 to 250 | Cn1cc2ccc(C(=O)N[C@@H](CCO[C@H]3C[C@H](CCc4ccc5c(n4)NCCC5)C3)C(=O)O)cc2n1 [Compound 39, N-(2-methyl-2H-indazole-6-carbonyl)-O-(trans-3-(2-(5,6,7,8-tetrahydro-1,8-naphthyridin-2-yl)ethyl)cyclobutyl)homoserine]
